Reference: patent US20120149780A1, “Method of Use of Vitamin K as Energy Enhancer in Diverse Disease States” (priority 2009, published 2012)

Assays:
[1] = literature supplemental trials, oral supplementation; cited from earlier work
[2] = Post-chemo restlessness/akathisia in ovarian cancer patient (case report); format: in vivo, human; conditions: Example 05: person, ovarian cancer under chemotherapy
Text: (§1) Person, was diagnosed to have bilateral ovarian cancer in 2005, with ascites and abdominal lymph node metastases. They have undergone surgery and several courses of chemotherapy. […] They are currently under chemotherapy cycles. They tolerated chemotherapy reasonably well but complained of marked fatigue and low energy levels. […] They were given a larger dose of vitamin K2-7 per day. […] They are continued on the dose of vitamin K2-7 for two months.

[3] = Muscle cramps and neuropathic symptoms of lower limbs (case report); format: in vivo, human; conditions: Example 06: person
Experimental: (§2) Their complaints were fatigue, low energy level, muscle cramps and tingling and numbness of lower limbs. […] These returned with drawal and were relieved with re-therapy. […] They were started 350 μg per day of vitamin K2-7 over the two months period.

[4] = Blood pressure in individual subjects taking vitamin K2-7 (case reports); format: in vivo, human
Experimental: Person, with hypercholesterolemia (Lipid Profile; 200 mg—Total cholesterol) for which they are taking Atorvastatin 5 mg one per day and 75 mg of Aspirin one per/day since last five years. Underwent angioplasty. They were also having blood pressure which ranges from 136-134/90-88 mmHg. They were taking Telmisartan 40 mg/day from last 4 years for hypertension. Then about 6 months ago they started taking vitamin K2-7 in daily dose of 200 μg. Currently they have stopped taking anti-hypertensive medication from last 1 month. Over a period of 1 and ½ months it is observed that their blood pressure has dropped down to 118-114/78-84 mmHg. Now they are off any anti-hypertensive medicine and continues with vitamin K2-7 only.
(§3) Person was having hypertension (160/114 mmHg) but was not on any medication. They complained of fatigue and low energy level. They were put on 3 capsules per day of 100 μg of vitamin K2-7 for 1 month and then on 2 capsule per day of 350 μg of vitamin K2-7 for the next 2 months under close observation by medical doctor. […] They continued the medicine for next couple of month with same dose i.e. 2 capsules per day of 350 μg of vitamin K2-7. […] Then they were taken off from the treatment for 15 days. Blood pressure shot up to 146/108 mmHg, They were again put on vitamin K2-7, 350 μg, 2 capsules per day and their blood pressure came down to 136/100 mmHg.
(§4) Person, healthy otherwise, was having blood pressure on higher side i.e. 130/90 mmHg. They were advised to start taking vitamin K2-7, in a dose of 650 μg, one capsule per day.

CEA = CEA levels in ovarian cancer patient (case report); format: in vivo, human; conditions: Example 05: person, under chemotherapy and vitamin K2-7
Text: as §1

[5] = Side effects / adverse effects noted during treatment (case reports); format: in vivo, human
Experimental: as §2, §4

[6] = Fatigue, energy level and exertion endurance in individual subjects (case reports); format: in vivo, human
Experimental: Person, suffering from general fatigue. They used to go to Gold gym 5-6 times per month. On the treadmill they used to walk at 5 km/hr speed at the start of the exercise and then gradually increase it to 6 km/hr in the next 15 minutes. When they started taking vitamin K2-7 350 μg per day, within 2 weeks of taking vitamin K2-7, they could start at 6 km/hr and go on up to 6.4 km/hr on the treadmill without feeling the strain they felt earlier. […] Their treadmill experience, was now smooth and ‘effortless’.
as §1, §2, §3
Person, was heaving history of Spondylosis, Diabetes mellitus and Hypertension. Five years ago they were operated for cataract (right eye). They are on regular medicine i.e. Atenol50™, one per day, after breakfast, Insulin2™ one per day after lunch, and Diaonil5™, two times a day. They were complaining of fatigue and lack of energy so much so that they found ascending 20 steps at a time difficult with related exhaustion and breathlessness. They were advised to take vitamin K2-7, 350 μg, one cap per day.

[7] = 500 μg/day, 36-month, older men; cited from earlier work

CN(CC(=O)O)C(=N)N.O [Creatine monohydrate]
effect of supplementation on VO2max / aerobic capacity / exercise performance [1]: did not increase performance

OC[C@H]1O[C@@H](n2cnc3c(O)ncnc32)[C@H](O)[C@@H]1O [Inosine]
effect of supplementation on VO2max / aerobic capacity / exercise performance [1]: no effect on aerobic performance

C[N+](C)(C)C[C@H](O)CC(=O)[O-] [L-carnitine]
effect of supplementation on VO2max / aerobic capacity / exercise performance [1]: unlikely to be associated with the enhanced exercise performance

NC(=O)C1=CN([C@@H]2O[C@H](COP(=O)(O)OP(=O)(O)OC[C@H]3O[C@@H](n4cnc5c(N)ncnc54)[C@H](O)[C@@H]3O)[C@@H](O)[C@H]2O)C=CC1 [NADH, Nicotinamide Adenine Dinucleotide Hydride]
effect of supplementation on VO2max / aerobic capacity / exercise performance [1]: no effects on maximal oxygen uptake VO2max, maximal anaerobic running time or mental performance

CN(CC(=O)O)C(=N)N [creatine]
effect of supplementation on VO2max / aerobic capacity / exercise performance [1]: improves exercise performance

CC(O)C(=O)O (stereo not drawn) [lactate]
effect of supplementation on VO2max / aerobic capacity / exercise performance [1]: unaffected

CC(CN1c2ccccc2Sc2ccccc21)N(C)C (stereo not drawn) [phenergan, reference compound]
post-chemo restlessness/akathisia [2]: relieved

O=C1O[C@H]([C@@H](O)CO)C(O)=C1O [vitamin C]
effect of supplementation on VO2max / aerobic capacity / exercise performance [1]: neither vitamin E nor C, either alone or in combination, enhanced exercise performance

CC(C)=CCC/C(C)=C/CC/C(C)=C/CC/C(C)=C/CC/C(C)=C/CC/C(C)=C/CC/C(C)=C/CC1=C(C)C(=O)c2ccccc2C1=O [vitamin K2-7]
symptoms of the nerves and muscle (cramps, tingling and numbness of lower limbs) ([3]; 100 μg/day): significantly relieved | cramps and neuropathic symptoms ([3]; 350 μg/day over two months): markedly reduced | blood pressure ([4]; Example 07: 2x350 μg/day restarted after 15 days off treatment (146/108 off treatment)): 136/100 | blood pressure ([4]; Example 07: continued 2x350 μg/day for next couple of months): 138/104 | blood pressure ([4]; Example 07: person, 3x100 μg/day 1 month then 2x350 μg/day 2 months, baseline 160/114): 140/108 | blood pressure ([4]; Example 08: person, 650 μg one capsule/day, 2 months, baseline 130/90): 112/80 | CEA levels (CEA): dropped markedly | side effects ([5]; Example 06: person, 100 then 350 μg/day): no side effects | adverse effects ([5]; Example 08: person, 650 μg/day, 2 months): no adverse effects | general fatigue ([6]; Example 04: person, 350 μg/day): general fatigue had reduced | treadmill starting speed ([6]; Example 04: person, 350 μg/day, within 2 weeks, earlier start 5 km/hr): 6 km/hr | treadmill speed reached ([6]; Example 04: person, 350 μg/day, within 2 weeks, earlier up to 6 km/hr): 6.4 km/hr | fatigue and energy level ([6]; Example 05: person, ovarian cancer under chemotherapy, 100 μg/day): not much relief in fatigue and energy level | fatigue and energy level ([6]; Example 05: person, ovarian cancer under chemotherapy, larger dose, within six weeks): less fatigue and significant improvement in the energy level | fatigue and low energy levels ([6]; Example 06: person, 100 μg/day): only mildly relieved | fatigue and energy level ([6]; Example 06: person, 350 μg/day over two months): significant relief in fatigue and reasonable increases in the energy level | fatigue and energy at work ([6]; Example 07: person, hypertensive, 2x350 μg/day): improvement in fatigue and feels more energetic at work | energy / ability to climb stairs ([6]; Example 09: person, diabetes and hypertension, 350 μg one cap/day, after a month): started feeling more energetic and would walk up the stairs easily without any problem | post-chemo restlessness/akathisia [2]: did not benefit

phosphate [Oral phosphate]
effect of supplementation on VO2max / aerobic capacity / exercise performance [1]: no improvement in aerobic capacity

vitamin E
effect of supplementation on VO2max / aerobic capacity / exercise performance [1]: neither vitamin E nor C, either alone or in combination, enhanced exercise performance

vitamin K
progression of insulin resistance [7]: reduction in progression of insulin resistance
